# Reference: patent publication US20130045985A1, “N-(5-FLUORO-2-((4-METHYLBENZYL)OXY)PYRIMIDIN-4-YL)BENZAMIDE DERIVATIVES” (Dow AgroSciences LLC, priority 2011, published 2013)
# Columns and labels:
# [1] = system: Mycosphaerella graminicola; Anamorph: Septoria tritici; Bayer Code SEPTTR; assay: Fungicidal activity: leaf blotch of wheat (SEPTTR), one-day protectant and three-day curative; format: in vivo, Septoria tritici on wheat plants (variety Yuma); details: wheat plants, rating of % disease control
# Experimental: Evaluation of Fungicidal Activity: Leaf Blotch of Wheat (Mycosphaerella graminicola; Anamorph: Septoria tritici; Bayer Code SEPTTR)
# Wheat plants (variety Yuma) were grown from seed in a greenhouse in 50% mineral soil/50% soil-less Metro mix until the first leaf was fully emerged, with 7-10 seedlings per pot. These plants were inoculated with an aqueous spore suspension of Septoria tritici either prior to or after fungicide treatments. After inoculation the plants were kept in 100% relative humidity (one day in a dark dew chamber followed by two to three days in a lighted dew chamber) to permit spores to germinate and infect the leaf. The plants were then transferred to a greenhouse for disease to develop.
# The following table presents the activity of typical compounds of the present disclosure when evaluated in these experiments. The effectiveness of the test compounds in controlling disease was determined by assessing the severity of disease on treated plants, then converting the severity to percent control based on the level of disease on untreated, inoculated plants.
# In each case of Table I the rating scale is as follows: […]
compound,measurement,setting,value
"Cc1ccc(COc2ncc(F)c(NC(=O)c3ccccc3)n2)cc1 [Cmpd 1, N-(5-fluoro-2-(4-methylbenzyloxy)pyrimidin-4-yl)benzamide]",melting point,,93 to 95 °C
same,SEPTTR 100 PPM 1DP,[1]; One-Day Protectant (1DP),B (51-75)
same,SEPTTR 100 PPM 3DC,[1]; Three-Day Curative (3DC),A (76-100)
